System: 233499-124-R-J3-PDC complex spheroid viability
Test: Anticancer human tumor 233499-124-R-J3-PDC patient-derived colon adenocarcinoma cell line growth inhibition [CLK]
Conditions: for IC50: curve of first compound; for viability, T/C: stronger effect = lower value
Source text: A high-throughput screen of multi-cell type tumor spheroids was designed to identify active combinations of […] and targeted small molecules. Complex spheroids include a stromal component modeled by human endothelial cells (HUVEC) and fibroblasts modeled by human mesenchymal stem cells (MSCs). The concentration ranges selected for each drug and investigational agent were based upon clinically achievable concentrations if the clinical Cmax of the agent was known.
Compounds. The drugs and investigational agents: cirtuvivint (SM08502; NSC835563), CC-671 (NSC850746), vemurafenib (NSC761431), tapotoclax (NSC804041), sotorasib (NSC818433), adagrasib (NSC831453), MRTX-1133 (NSC836407), BAY2416964 (NSC825713), copanlisib (NSC816437), inavolisib (NSC800729), abemaciclib (NSC768073), osimertinib (NSC779217), entinostat (NSC756642), eltanexor (KPT-8602, NSC794443), venetoclax (NSC766270), ceralasertib (NSC777638), bortezomib (NSC756655), olaparib (NSC753686), talazoparib (NSC767125), alisertib (NSC759677), peposertib (NSC802822), gemcitabine (NSC613327), 5-fluorouracil (NSC19893), SN-38 (NSC673596), oxaliplatin (NSC266046), paclitaxel (NSC125973), and doxorubicin (NSC123127), were obtained from the National Cancer Institute (NCI) Developmental Therapeutics Program Chemical Repository. The FDA-approved anticancer drug set is available from the Developmental Therapeutics Program at https://dtp.cancer.gov/organization/dscb/obtaining/available plates.htm. […] The stock solutions were prepared in dimethyl sulfoxide (DMSO, Sigma-Aldrich, St. Louis, MO, cat. D2650), except for the platinum complexes which were prepared in saline (Quality Biological, Gaithersburg, MD, cat. 114-055-101), at 800-fold the tested concentration and stored at -70 degrees C prior to their use. All drugs and investigational agents were tested over a range starting from a high concentration at or near the clinical Cmax and decreasing in half-log increments. If the clinical Cmax for an agent had not been determined, the highest concentration tested was 10 microM.
Cell Culture. All cells were maintained in an incubator at 37 degrees C and 5% CO2 with 95% humidity. The PDC lines were cultured according to standard operating procedures established by the NCI PDMR. Briefly, all PDCs were thawed and cultured in Matrigel-coated flasks prepared with a working solution of 1X Ham's F-12 nutrient mix, without supplementation (Invitrogen, Waltham, MA, cat. 11765054), 100 U/mL penicillin-streptomycin (Invitrogen, cat. 15140122), and 2.5% Matrigel (Corning Inc., Corning, NY, cat. 354248) for the first three passages. The 947758-054-R-J2-PDC line was cultured in 6B/Colon 1A media, which includes advanced DMEM/F-12 (Thermo Fisher Scientific, cat. 12634028), 10 mM HEPES (Thermo Fisher Scientific, cat. 15630080), 1X GlutaMAX supplement (Thermo Fisher Scientific, cat. 35050061), 0.1 mg/mL primocin (InvivoGen, cat. ant-pm-2), 10% defined fetal bovine serum, heat inactivated (HyClone Laboratories Inc., cat. SH30070.03HI), 1.25 mM N-Acetyl-L-cysteine (Sigma-Aldrich, cat. A9165), 10 mM nicotinamide (Sigma-Aldrich, cat. N0636), 1X B-27 supplement (Thermo Fisher Scientific, cat. 17504044), 1X N-2 supplement (Thermo Fisher Scientific, cat. 17502048), and 10 microM Y-27632 dihydrochloride (Tocris Bioscience, cat. 1254). The 876862-298-R-J1-PDC was cultured in 6E media, which includes all 6B/Colon 1A media components plus 50% L-WRN conditioned media (ATCC, cat. CRL-3276), 50 ng/mL recombinant human EGF recombinant protein (hEGF; Thermo Fisher Scientific, cat. PHG0311), 10 ng/mL recombinant human fibroblast growth factor 10 (hGFG-10; PeproTech, cat. 100-26), 1 ng/mL recombinant human fibroblast growth factor 2 (hFGF-2; PeproTech, cat. 100-18B), and 1 µM prostaglandin E2 (PGE2; Tocris, cat. 2296). The 227483-062-R1-J1-PDC line was cultured in Panc media, containing all 6E components except hFGF-2, with the addition of 500 nM SB-431542 (Selleckchem, cat. S1067) and 10 nM gastrin (Tocris, cat. 3006). […]

[1] = second compound 0.0316 µM, first compound 0.0316 µM
[2] = second compound 0.0316 µM, first compound 0.1 µM
[3] = second compound 0.0316 µM, first compound 0.316 µM
[4] = second compound 0.0316 µM, first compound 1 µM
[5] = second compound 0.0316 µM, first compound 3.16 µM
[6] = second compound 0.0316 µM, first compound 10 µM
[7] = second compound 0.1 µM, first compound 0.0316 µM
[8] = second compound 0.1 µM, first compound 0.1 µM
[9] = second compound 0.1 µM, first compound 0.316 µM
[10] = second compound 0.1 µM, first compound 1 µM
[11] = second compound 0.1 µM, first compound 3.16 µM
[12] = second compound 0.1 µM, first compound 10 µM
[13] = second compound 0.316 µM, first compound 0.0316 µM
[14] = second compound 0.316 µM, first compound 0.1 µM
[15] = second compound 0.316 µM, first compound 0.316 µM
[16] = second compound 0.316 µM, first compound 1 µM
[17] = second compound 0.316 µM, first compound 3.16 µM
[18] = second compound 0.316 µM, first compound 10 µM
[19] = second compound 1 µM, first compound 0.0316 µM
[20] = second compound 1 µM, first compound 0.1 µM
[21] = second compound 1 µM, first compound 0.316 µM
[22] = second compound 1 µM, first compound 1 µM
[23] = second compound 1 µM, first compound 3.16 µM
[24] = second compound 1 µM, first compound 10 µM
[25] = second compound 3.16 µM, first compound 0.0316 µM
[26] = second compound 3.16 µM, first compound 0.1 µM
[27] = second compound 3.16 µM, first compound 0.316 µM
[28] = second compound 3.16 µM, first compound 1 µM
[29] = second compound 3.16 µM, first compound 3.16 µM
[30] = second compound 3.16 µM, first compound 10 µM
[31] = second compound 10 µM, first compound 0.0316 µM
[32] = second compound 10 µM, first compound 0.1 µM
[33] = second compound 10 µM, first compound 0.316 µM
[34] = second compound 10 µM, first compound 1 µM
[35] = second compound 10 µM, first compound 3.16 µM
[36] = second compound 10 µM, first compound 10 µM
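Further: spheroids exposed to the drug combinations for seven days.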
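Wherever viability, T/C is given: percent viability relative to DMSO vehicle control wells taken as 100%.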

Structure (SMILES): C#Cc1c(F)ccc2cc(O)cc(-c3ncc4c(N5CC6CCC(C5)N6)nc(OCC56CCCN5CC(F)C6)nc4c3F)c12 (centres undefined) + CN1CCN(c2cc(C(=O)Nc3cc4cc(-c5cnn(C)c5)ccc4cn3)ccn2)CC1
- IC50 (second compound 0.0316 µM): > 10 µM
- IC50 (second compound 0.1 µM): > 10 µM
- IC50 (second compound 0.316 µM): > 10 µM
- IC50 (second compound 1 µM): < 0.0316 µM
- IC50 (second compound 3.16 µM): < 0.0316 µM
- IC50 (second compound 10 µM): < 0.0316 µM
- viability, T/C [1]: 80.6%
- viability, T/C [2]: 96.9%
- viability, T/C [3]: 92.9%
- viability, T/C [4]: 91.9%
- viability, T/C [5]: 98.1%
- viability, T/C [6]: 76.8%
- viability, T/C [7]: 87.4%
- viability, T/C [8]: 99.8%
- viability, T/C [9]: 109%
- viability, T/C [10]: 94.1%
- viability, T/C [11]: 85.7%
- viability, T/C [12]: 71.4%
- viability, T/C [13]: 90.7%
- viability, T/C [14]: 92%
- viability, T/C [15]: 102%
- viability, T/C [16]: 98.5%
- viability, T/C [17]: 81.9%
- viability, T/C [18]: 66.4%
- viability, T/C [19]: 3.8%
- viability, T/C [20]: 4.61%
- viability, T/C [21]: 1.85%
- viability, T/C [22]: 9.57%
- viability, T/C [23]: 2.33%
- viability, T/C [24]: 1.27%
- viability, T/C [25]: 0.59%
- viability, T/C [26]: 0.56%
- viability, T/C [27]: 0.97%
- viability, T/C [28]: 0.63%
- viability, T/C [29]: 1.43%
- viability, T/C [30]: 0.5%
- viability, T/C [31]: 0.45%
- viability, T/C [32]: 0.45%
- viability, T/C [33]: 0.43%
- viability, T/C [34]: 0.39%
- viability, T/C [35]: 0.39%
- viability, T/C [36]: 0.8%

Structure (SMILES): C=C(F)C(=O)N1CCN(c2nc(OCC3CCCN3C)nc3c2CCN(c2cccc4cccc(Cl)c24)C3)CC1CC#N (centres undefined) + CN1CCN(c2cc(C(=O)Nc3cc4cc(-c5cnn(C)c5)ccc4cn3)ccn2)CC1
- IC50 (second compound 0.0316 µM): > 10 µM
- IC50 (second compound 0.1 µM): > 10 µM
- IC50 (second compound 0.316 µM): 9.65 µM
- IC50 (second compound 1 µM): < 0.0316 µM
- IC50 (second compound 3.16 µM): < 0.0316 µM
- IC50 (second compound 10 µM): < 0.0316 µM
- viability, T/C [1]: 95.2%
- viability, T/C [2]: 104%
- viability, T/C [3]: 91.5%
- viability, T/C [4]: 100%
- viability, T/C [5]: 94.1%
- viability, T/C [6]: 84%
- viability, T/C [7]: 99.6%
- viability, T/C [8]: 90.9%
- viability, T/C [9]: 103%
- viability, T/C [10]: 96%
- viability, T/C [11]: 95.2%
- viability, T/C [12]: 85.1%
- viability, T/C [13]: 93.6%
- viability, T/C [14]: 90.3%
- viability, T/C [15]: 82.9%
- viability, T/C [16]: 98.6%
- viability, T/C [17]: 87.8%
- viability, T/C [18]: 48.6%
- viability, T/C [19]: 1.94%
- viability, T/C [20]: 3.93%
- viability, T/C [21]: 4.58%
- viability, T/C [22]: 0.73%
- viability, T/C [23]: 5.08%
- viability, T/C [24]: 0.83%
- viability, T/C [25]: 0.56%
- viability, T/C [26]: 0.88%
- viability, T/C [27]: 0.69%
- viability, T/C [28]: 0.56%
- viability, T/C [29]: 0.42%
- viability, T/C [30]: 0.12%
- viability, T/C [31]: 0.42%
- viability, T/C [32]: 0.74%
- viability, T/C [33]: 0.44%
- viability, T/C [34]: 0.95%
- viability, T/C [35]: 0.32%
- viability, T/C [36]: 0.72%

From PubChem BioAssay AID2060613 (Molecular Pharmacology Branch, DTP, NCI, 2025)
